In patent US8669271B2 (Boehringer Ingelheim International GmbH, priority 2010, dated 2014):

target: T1, human GPR119 (Homo sapiens, UniProt Q8TDV5); assay: AlphaScreen cAMP assay in Min-6/hGPR119 cells (activation of GPR119, intracellular cAMP); format: cell-based; conditions: MIN6 cells stably transfected with human GPR119; cAMP by AlphaScreen after 45 minutes incubation at room temperature
T1 construct: expression vector for human GPR119 cDNA (Acc. No. NP_848566); expressed in transfected cells
T1 sequence (Q8TDV5 1-335): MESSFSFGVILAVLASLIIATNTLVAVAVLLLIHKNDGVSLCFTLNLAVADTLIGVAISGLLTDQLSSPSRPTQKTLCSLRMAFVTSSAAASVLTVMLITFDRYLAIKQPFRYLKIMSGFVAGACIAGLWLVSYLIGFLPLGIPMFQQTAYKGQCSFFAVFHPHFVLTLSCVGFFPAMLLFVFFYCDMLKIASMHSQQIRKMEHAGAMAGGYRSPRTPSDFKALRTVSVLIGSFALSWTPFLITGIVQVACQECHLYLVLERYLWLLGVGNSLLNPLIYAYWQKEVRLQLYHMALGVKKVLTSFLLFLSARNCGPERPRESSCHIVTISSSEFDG
How it was run: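 MIN6 cells stably expressing human GPR119, seeded 24 h before treatment; compounds applied 45 min at ~20 °C in Hepes-buffered saline pH 7.4 with 0.5 mM IBMX, 0.1% BSA, 1% DMSO final. Intracellular cAMP measured by AlphaScreen.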

Row | Compound | EC50 [nM]
1 | Cn1cc(-c2cc3c(cn2)OC(C2CCN(C(=O)OC(C)(C)C)CC2)C3)cn1 (centres unmarked) [Example 68, 4-[5-(1-Methyl-1H-pyrazol-4-yl)-2,3-dihydro-furo[2,3-c]pyridin-2-yl]-piperidine-1-carboxylic acid tert-butyl ester] | 575
2 | CC(C)(C)OC(=O)N1CCC(C2Cc3cc(-n4ccnc4)ncc3O2)CC1 (centres unmarked) [Example 69, 4-(5-Imidazol-1-yl-2,3-dihydro-furo[2,3-c]pyridin-2-yl)-piperidine-1-carboxylic acid tert-butyl ester] | 162
3 | Cc1nccn1-c1cc2c(cn1)OC(C1CCN(C(=O)OC(C)(C)C)CC1)C2 (centres unmarked) [Example 70, 4-[5-(2-Methyl-imidazol-1-yl)-2,3-dihydro-furo[2,3-c]pyridin-2-yl]-piperidine-1-carboxylic acid tert-butyl ester] | 706
4 | CC(C)(C)OC(=O)N1CCC([C@@H]2Cc3cc(-c4ccc(S(C)(=O)=O)cn4)ccc3O2)CC1 [Example 71, (S)-4-[5-(5-Methanesulfonyl-pyridin-2-yl)-2,3-dihydro-benzofuran-2-yl]-piperidine-1-carboxylic acid tert-butyl ester] | 11
5 | CC(C)(C)OC(=O)N1CCC([C@H]2Cc3cc(-c4ccc(S(C)(=O)=O)cn4)ccc3O2)CC1 [Example 72, (R)-4-[5-(5-Methanesulfonyl-pyridin-2-yl)-2,3-dihydro-benzofuran-2-yl]-piperidine-1-carboxylic acid tert-butyl ester] | 97
6 | CC(C)(C)OC(=O)N1CCC([C@@H]2Cc3nc(-c4ccc(S(C)(=O)=O)cc4)ncc3O2)CC1 [Example 73, (S)-4-[2-(4-Methanesulfonyl-phenyl)-6,7-dihydro-furo[3,2-d]pyrimidin-6-yl]-piperidine-1-carboxylic acid tert-butyl ester] | 27
7 | CC(C)(C)OC(=O)N1CCC([C@H]2Cc3nc(-c4ccc(S(C)(=O)=O)cc4)ncc3O2)CC1 [Example 74, (R)-4-[2-(4-Methanesulfonyl-phenyl)-6,7-dihydro-furo[3,2-d]pyrimidin-6-yl]-piperidine-1-carboxylic acid tert-butyl ester] | 218
8 | CC(C)(C)OC(=O)N1CCC(C2(C)Cc3cc(-c4ccc(S(C)(=O)=O)cc4)ncc3O2)CC1 (centres unmarked) [Example 77, 4-[5-(4-Methanesulfonyl-phenyl)-2-methyl-2,3-dihydro-furo[2,3-c]pyridin-2-yl]-piperidine-1-carboxylic acid tert-butyl ester] | 14
9 | CC(C)(C)OC(=O)N1CCC(C2(C)Cc3cc(C4=CCN(S(C)(=O)=O)CC4)ncc3O2)CC1 (centres unmarked) [Example 78, 4-[5-(1-Methanesulfonyl-1,2,3,6-tetrahydro-pyridin-4-yl)-2-methyl-2,3-dihydro-furo[2,3-c]pyridin-2-yl]-piperidine-1-carboxylic acid tert-butyl ester] | 15
10 | CC(C)(C)OC(=O)N1CCC(C2(C)Cc3cc(N4CCN(S(C)(=O)=O)CC4)ncc3O2)CC1 (centres unmarked) [Example 79, 4-[5-(4-Methanesulfonyl-piperazin-1-yl)-2-methyl-2,3-dihydro-furo[2,3-c]pyridin-2-yl]-piperidine-1-carboxylic acid tert-butyl ester] | 40
11 | CC(C)(C)OC(=O)N1CCC(C2(C)Cc3cc(-c4ccc(CS(C)(=O)=O)cc4)ncc3O2)CC1 (centres unmarked) [Example 80, 4-[5-(4-Methanesulfonylmethyl-phenyl)-2-methyl-2,3-dihydro-furo[2,3-c]pyridin-2-yl]-piperidine-1-carboxylic acid tert-butyl ester] | 24
12 | CC(C)(C)OC(=O)N1CCC(C2(C)Cc3cc(C4CCN(S(C)(=O)=O)CC4)ncc3O2)CC1 (centres unmarked) [Example 81, 4-[5-(1-Methanesulfonyl-piperidin-4-yl)-2-methyl-2,3-dihydro-furo[2,3-c]pyridin-2-yl]-piperidine-1-carboxylic acid tert-butyl ester] | 53
13 | CC(C)(C)OC(=O)N1CCC(C2(C)Cc3cc(-c4ccc(CS(C)(=O)=O)cc4F)ncc3O2)CC1 (centres unmarked) [Example 82] | 21

Next, values leading:

Row | EC50 [nM] | Compound
14 | 4 | CC(C)(C)OC(=O)N1CCC([C@]2(C)Cc3cc(-c4ccc(S(C)(=O)=O)cc4)ncc3O2)CC1 [Example 83, (S)-4-[5-(4-Methanesulfonyl-phenyl)-2-methyl-2,3-dihydro-furo[2,3-c]pyridin-2-yl]-piperidine-1-carboxylic acid tert-butyl ester]
15 | 172 | CC(C)(C)OC(=O)N1CCC([C@@]2(C)Cc3cc(-c4ccc(S(C)(=O)=O)cc4)ncc3O2)CC1 [Example 84, (R)-4-[5-(4-Methanesulfonyl-phenyl)-2-methyl-2,3-dihydro-furo[2,3-c]pyridin-2-yl]-piperidine-1-carboxylic acid tert-butyl ester]
16 | 7 | CC1(OC(=O)N2CCC([C@]3(C)Cc4cc(-c5ccc(S(C)(=O)=O)cc5)ncc4O3)CC2)CC1 [Example 85, (S)-4-[5-(4-Methanesulfonyl-phenyl)-2-methyl-2,3-dihydro-furo[2,3-c]pyridin-2-yl]-piperidine-1-carboxylic acid 1-methyl-cyclopropyl ester]
17 | 11 | CC(C)OC(=O)N1CCC([C@]2(C)Cc3cc(-c4ccc(S(C)(=O)=O)cc4)ncc3O2)CC1 [Example 86, (S)-4-[5-(4-Methanesulfonyl-phenyl)-2-methyl-2,3-dihydro-furo[2,3-c]pyridin-2-yl]-piperidine-1-carboxylic acid isopropyl ester]
18 | 13 | CC1(OC(=O)N2CCC([C@]3(C)Cc4cc(C5=CCN(S(C)(=O)=O)CC5)ncc4O3)CC2)CC1 [Example 88, (S)-4-[5-(1-Methanesulfonyl-1,2,3,6-tetrahydro-pyridin-4-yl)-2-methyl-2,3-dihydro-furo[2,3-c]pyridin-2-yl]-piperidine-1-carboxylic acid 1-methyl-cyclopropyl ester]
19 | 7 | CC(C)OC(=O)N1CCC([C@]2(C)Cc3cc(C4=CCN(S(C)(=O)=O)CC4)ncc3O2)CC1 [Example 89, (S)-4-[5-(1-Methanesulfonyl-1,2,3,6-tetrahydro-pyridin-4-yl)-2-methyl-2,3-dihydro-furo[2,3-c]pyridin-2-yl]-piperidine-1-carboxylic acid isopropyl ester]
20 | 19 | CC(C)(C)OC(=O)N1CCC(C2Cc3cc(N4CCN(S(C)(=O)=O)CC4)ncc3O2)CC1 (centres unmarked) [Example 90, 4-[5-(4-Methanesulfonyl-piperazin-1-yl)-2,3-dihydro-furo[2,3-c]pyridin-2-yl]-piperidine-1-carboxylic acid tert-butyl ester]
21 | 603 | CC(C)(C)OC(=O)N1CCC(C2Cc3nc(N4CCN(S(C)(=O)=O)CC4)ncc3O2)CC1 (centres unmarked) [Example 91, 4-[2-(4-Methanesulfonyl-piperazin-1-yl)-6,7-dihydro-furo[3,2-d]pyrimidin-6-yl]-piperidine-1-carboxylic acid tert-butyl ester]
22 | 12 | CC(C)(C)OC(=O)N1CCC(C2Cc3cc(C4=CCN(S(C)(=O)=O)CC4)ncc3O2)CC1 (centres unmarked) [Example 92, 4-[5-(1-Methanesulfonyl-1,2,3,6-tetrahydro-pyridin-4-yl)-2,3-dihydro-furo[2,3-c]pyridin-2-yl]-piperidine-1-carboxylic acid tert-butyl ester]
23 | 32 | CC(C)(C)OC(=O)N1CCC(C2Cc3cc(C4CCN(S(C)(=O)=O)CC4)ncc3O2)CC1 (centres unmarked) [Example 93, 4-[5-(1-Methanesulfonyl-piperidin-4-yl)-2,3-dihydro-furo[2,3-c]pyridin-2-yl]-piperidine-1-carboxylic acid tert-butyl ester]
